# Test results taken from patent publication US10806717B2, “Methods and compositions for improving cognitive function” (The Johns Hopkins University, priority 2013, dated 2020).
# Test system: aMCI subjects
# Experiment: Explicit 3-alternative forced choice task (lure stimuli)
# Format: in vivo, human
# Procedure: As described above, the drug treatment period is the two weeks preceding Visit 1 or 2 (with the two week period preceding the other Visit being the placebo phase). […]
# The activity of the subject's medial temporal lobe is measured by functional MRI during the subject's participation in an explicit 3-alternative forced choice task, where participants view novel, repeated and similar (“lure”) stimuli. The Psychophysics Toolbox extensions in Matlab 7.0 (The MathWorks, Natick, Mass.) is used for stimulus presentation and behavioral data collection. Stimuli are color photographs of common objects. Each participant undergoes a series of testing runs during the functional imaging sessions, each run consisting of a mix of three types of image pairs: similar pairs, identical pairs and unrelated foils. These image pairs are fully randomized throughout the run and presented individually as a series of images (see FIG. 10A). Participants are instructed to make a judgment as to whether each object seen is new, old or similar. Of critical interest are the participants' responses when presented with the second of the pair of similar objects (the “lure”; see FIG. 10B). The correct identification by the subject of lure stimuli as “similar,” provides behavioral evidence of pattern separation, i.e., the separation of similar experiences into distinct non-overlapping representations. […]
# As described above, the drug treatment period is the two weeks preceding Visit 1 or 2 (with the two week period preceding the other Visit being the placebo phase). […] For the subjects receiving the 62.5 mg BID drug treatment, a quarter of a scored 250 mg tablet of levetiracetam is used to achieve a dose of 62.5 twice a day, i.e., 125 mg/day which is approximately 1.5 mg/kg/day.
# The activity of the subject's medial temporal lobe is measured by functional MRI during the subject's participation in an explicit 3-alternative forced choice task, where participants view novel, repeated and similar (“lure”) stimuli. […]
smiles,measurement,setting,value
"CC[C@@H](C(N)=O)N1CCCC1=O [levetiracetam, (2S)-2-(2-oxopyrrolidin-1-yl)butanamide]",performance in the memory task (similar vs old responses to lures),"levetiracetam 62.5 mg BID for two weeks vs placebo, p=0.041",improves significantly
same,performance in the memory task (similar vs old responses to lures),"levetiracetam 125 mg twice a day for two weeks vs placebo, p=0.039",improves significantly
same,performance in the memory task (similar vs old responses to lures),"levetiracetam 250 mg BID for two weeks vs placebo, p=0.2396",does not significantly improve
